Experimental data taken from ChEMBL document CHEMBL2086342, “Synthesis and preliminary bioevaluation of novel E-ring modified acetal analog of camptothecin as cytotoxic agents” (Eur J Med Chem, 2012).
Active and inactive are the calls of the source. The rule behind the calls is not given here.

Tests used:
[1] = system: A549; test: Antiproliferative activity against human A549 cells after 3 days by MTT assay; type: functional, cell-based; conditions: A549, 72 h
[2] = system: HCT-116; test: Antiproliferative activity against human HCT116 cells after 3 days by MTT assay; type: functional, cell-based; conditions: HCT-116, 72 h
[3] = system: MDA-MB-435; test: Antiproliferative activity against human MDA-MB-435 cells after 3 days by MTT assay; type: functional, cell-based; conditions: MDA-MB-435, 72 h
[4] = species on record: Bos taurus; test: Inhibition of calf thymus DNA topoisomerase 1-mediated relaxation of supercoiled DNA pBR322 assessed as appearance of short DNA fragment at 100 uM after 15 mins by agarose gel electrophoresis
[5] = system: A549; test: Antitumor activity against human A549 cells xenografted in BALB/c mouse assessed as decrease in tumor weight at 2 mg/kg, ip qd for 5 days measured after 14 days relative to control; type: functional; conditions: route intraperitoneal, read-out: TGI
[6] = system: Mus musculus; test: Toxicity in human A549 cells xenografted in BALB/c mouse assessed as reduction in body weight at 2 mg/kg, ip qd for 5 days measured after 14 days; type: organism-based; design: dose 2 mg/kg, route intraperitoneal; conditions: in vivo, 336 h
[7] = system: Mus musculus; test: Toxicity in human A549 cells xenografted in BALB/c mouse assessed as mortality at 2 mg/kg, ip qd for 5 days measured after 14 days; type: organism-based; design: dose 2 mg/kg, route intraperitoneal; conditions: in vivo, 336 h
[8] = system: Mus musculus; test: Toxicity in human A549 cells xenografted in BALB/c mouse assessed as gross abnormalities at 2 mg/kg, ip qd for 5 days measured after 14 days by necropsy analysis; type: organism-based; design: dose 2 mg/kg, route intraperitoneal; conditions: in vivo, 336 h
[9] = system: ZR-75-30; test: Antiproliferative activity against human ZR75-30 cells after 3 days by MTT assay; type: functional, cell-based; conditions: ZR-75-30, 72 h
[10] = system: MRC5; test: Antiproliferative activity against human MRC5 cells after 3 days by MTT assay; type: cell-based; conditions: mrc5, 72 h
[11] = species on record: Bos taurus; test: Inhibition of calf thymus DNA topoisomerase 1-mediated relaxation of supercoiled DNA pBR322 assessed as appearance of short DNA fragment at 1 to 50 uM after 15 mins by agarose gel electrophoresis
[12] = system: A549; test: Induction of apoptosis in human A549 cells assessed as morphological change at 5 uM after 48 hrs by phase contrast microscopy analysis; type: functional, cell-based
[13] = system: A549; test: Induction of apoptosis in human A549 cells at 5 uM after 48 hrs by annexinV and propidium iodide dual stain based flow cytometry analysis relative to control; type: functional
[14] = species on record: Bos taurus; test: Inhibition of calf thymus DNA topoisomerase 1-mediated relaxation of supercoiled DNA pBR322 assessed as appearance of short DNA fragment after 15 mins by agarose gel electrophoresis
[15] = system: A549; test: Antitumor activity against human A549 cells xenografted in BALB/c mouse assessed as decrease in tumor weight at 0.5 mg/kg, iv qd for 5 days measured after 14 days relative to control; type: functional; conditions: read-out: TGI
[16] = system: Mus musculus; test: Toxicity in human A549 cells xenografted in BALB/c mouse assessed as reduction in body weight at 0.5 mg/kg, iv qd for 5 days measured after 14 days; type: organism-based; design: dose 0.5 mg/kg, route intravenous; conditions: in vivo, 336 h
[17] = system: Mus musculus; test: Toxicity in human A549 cells xenografted in BALB/c mouse assessed as mortality at 0.5 mg/kg, iv qd for 5 days measured after 14 days; type: organism-based; design: dose 0.5 mg/kg, route intravenous; conditions: in vivo, 336 h

Structure (SMILES): CC[C@]1(O)c2cc3n(c(=O)c2CO[C@@H]1OC)Cc1cc2ccccc2nc1-3
- IC50 [1]: 8800 nM
- IC50 [2]: 8170 nM
- IC50 [3]: 56400 nM

Structure (SMILES): CC[C@]1(O)c2cc3n(c(=O)c2CO[C@H]1OCC(F)(F)F)Cc1cc2ccccc2nc1-3
- IC50 [1]: 5970 nM
- IC50 [2]: 309 nM
- IC50 [3]: 2300 nM
- inhibition [4]: Active

Structure (SMILES): CCOCC(C)O[C@@H]1OCc2c(cc3n(c2=O)Cc2cc4ccccc4nc2-3)[C@@]1(O)CC (stereo partly drawn)
- IC50 [1]: 7400 nM
- IC50 [2]: 236 nM
- IC50 [3]: 2520 nM

Structure (SMILES): CCCO[C@@H]1OCc2c(cc3n(c2=O)Cc2cc4ccccc4nc2-3)[C@@]1(O)CC
- IC50 [1]: 323 nM
- IC50 [2]: 517 nM
- IC50 [3]: 12700 nM

Structure (SMILES): CCO[C@@H]1OCc2c(cc3n(c2=O)Cc2cc4ccccc4nc2-3)[C@@]1(O)CC
- IC50 [1]: 322 nM
- IC50 [2]: 406 nM
- IC50 [3]: 6250 nM
- inhibition [4]: Active

Structure (SMILES): CC[C@]1(O)c2cc3n(c(=O)c2CO[C@H]1OCCF)Cc1cc2ccccc2nc1-3
- IC50 [1]: 6310 nM
- IC50 [2]: 249 nM
- IC50 [3]: 1330 nM
- inhibition [4]: Active

Structure (SMILES): CCCCCO[C@@H]1OCc2c(cc3n(c2=O)Cc2cc4ccccc4nc2-3)[C@@]1(O)CC
- IC50 [1]: 678 nM
- IC50 [2]: 127 nM
- IC50 [3]: 10600 nM

Structure (SMILES): CCOCCO[C@@H]1OCc2c(cc3n(c2=O)Cc2cc4ccccc4nc2-3)[C@@]1(O)CC
- IC50 [1]: 2580 nM
- IC50 [2]: 90.2 nM
- IC50 [3]: 469 nM
- inhibition [4]: Active
- inhibition in vivo at 2 mg/kg [5]: 35%
- Activity [6]: 20.98 g
- Activity [7]: Non-toxic
- Activity [8]: Non-toxic

Structure (SMILES): CC[C@]1(O)c2cc3n(c(=O)c2CO[C@H]1OCCOC)Cc1cc2ccccc2nc1-3
- IC50 [1]: 5190 nM
- IC50 [2]: 333 nM
- IC50 [3]: 4920 nM
- inhibition [4]: Active

Structure (SMILES): CCCCc1c2c(nc3ccccc13)-c1cc3c(c(=O)n1C2)CO[C@@H](OCCOCC)[C@]3(O)CC
- IC50 [1]: 598 nM
- IC50 [2]: 1 nM
- IC50 [3]: 223 nM
- IC50 [9]: 122 nM
- Activity [10]: Non-toxic
- inhibition [4]: Active
- inhibition [11]: inactive
- Activity [12]: Active
- Activity [13]: 0.5%
- inhibition in vivo at 2 mg/kg [5]: 27%
- Activity [6]: 21.09 g
- Activity [7]: Non-toxic
- Activity [8]: Non-toxic

Structure (SMILES): CC[C@]1(O)c2cc3n(c(=O)c2CO[C@H]1OC(C)C)Cc1cc2ccccc2nc1-3
- IC50 [1]: > 100000 nM
- IC50 [2]: 11500 nM
- IC50 [3]: > 100000 nM

Structure (SMILES): CC[C@]1(O)c2cc3n(c(=O)c2CO[C@H]1OCC(C)C)Cc1cc2ccccc2nc1-3
- IC50 [1]: 394 nM
- IC50 [2]: 210 nM
- IC50 [3]: 7900 nM

Structure (SMILES): CC[C@@]1(O)C(=O)OCc2c1cc1n(c2=O)Cc2cc3ccccc3nc2-1 [CAMPTOTHECIN]
- IC50 [1]: 2610 nM
- IC50 [2]: 110 nM
- IC50 [3]: 43.6 nM
- inhibition [14]: Dose-dependent effect

Structure (SMILES): CC[C@]1(O)c2cc3n(c(=O)c2CO[C@H]1OCC(F)(F)C(F)(F)F)Cc1cc2ccccc2nc1-3
- IC50 [1]: 302 nM
- IC50 [2]: 73 nM
- IC50 [3]: 606 nM

Structure (SMILES): CC[C@@]1(O)C(=O)OCc2c1cc1n(c2=O)Cc2cc3c(CN(C)C)c(O)ccc3nc2-1 [TOPOTECAN]
- IC50 [1]: 2800 nM
- IC50 [2]: 88.9 nM
- IC50 [3]: 917 nM
- inhibition in vivo at 0.5 mg/kg [15]: 57.5%
- Activity [16]: 15.15 g
- Activity [17]: Non-toxic

Structure (SMILES): CC[C@]1(O)c2cc3n(c(=O)c2CO[C@H]1OC(C)COC)Cc1cc2ccccc2nc1-3 (stereo partly drawn)
- IC50 [1]: 8380 nM
- IC50 [2]: 117 nM
- IC50 [3]: 2740 nM

Structure (SMILES): CCC(C)O[C@@H]1OCc2c(cc3n(c2=O)Cc2cc4ccccc4nc2-3)[C@@]1(O)CC (stereo partly drawn)
- IC50 [1]: > 100000 nM
- IC50 [2]: > 100000 nM
- IC50 [3]: > 100000 nM

Structure (SMILES): CCCCO[C@@H]1OCc2c(cc3n(c2=O)Cc2cc4ccccc4nc2-3)[C@@]1(O)CC
- IC50 [1]: > 100000 nM
- IC50 [2]: 95100 nM
- IC50 [3]: > 100000 nM
- inhibition [4]: Active

Structure (SMILES): CC[C@]1(O)c2cc3n(c(=O)c2CO[C@H]1OC)Cc1cc2ccccc2nc1-3
- IC50 [1]: 420 nM
- IC50 [2]: 532 nM
- IC50 [3]: 3670 nM
- inhibition [4]: Active

Structure (SMILES): CCOCCO[C@@H]1OCc2c(cc3n(c2=O)Cc2cc4c([N+](=O)[O-])cccc4nc2-3)[C@@]1(O)CC
- IC50 [1]: 5690 nM
- IC50 [2]: 56.9 nM
- IC50 [3]: 1080 nM

Structure (SMILES): CCOCCO[C@@H]1OCc2c(cc3n(c2=O)Cc2cc4cc(OC)ccc4nc2-3)[C@@]1(O)CC
- IC50 [1]: 838 nM
- IC50 [2]: 1 nM
- IC50 [3]: 210 nM
- inhibition [4]: Active
- inhibition [11]: inactive

Structure (SMILES): CC[C@]1(O)c2cc3n(c(=O)c2CO[C@H]1OC(=O)CCC(=O)O)Cc1cc2ccccc2nc1-3
- IC50 [1]: 308 nM
- IC50 [2]: 264 nM
- IC50 [3]: 1320 nM
